The text below walks through data of article PMC9403717, “Ruthenium complexes show potent inhibition of AKR1C1, AKR1C2, and AKR1C3 enzymes and anti-proliferative action against chemoresistant ovarian cancer cell line” (Frontiers in Pharmacology, 2022).

Where only a bound is given, the exact number is not on record here.

This experiment relates to HIO80 cells. The experiment is described as follows: Cell proliferation assay (alamarBlue), control cell line HIO80. The format is cell-based, human. As to conditions: 48 h incubation. How it is done:
The cell line COV362 (CVCL_2,420) was originally established from a high-grade ovarian serous adenocarcinoma from a metastatic site in the pleural effusion ([van den Berg-Bakker et al., 1993]) and was purchased from ECACC (ECACC 07071910) as p37 on 13 October 2017. The growth medium for COV362 cells was DMEM (D5546; Sigma–Aldrich GmbH), with 10% FBS (F9665; Sigma–Aldrich GmbH) and 2 mM L-glutamine (G7513; Sigma–Aldrich GmbH). COV362 cells in passages p37 + 12 to p37 + 17 were used in this study and seeded at a concentration of 3.5 cells/ml × 10^4 cells/ml for proliferation studies and at a concentration of 5.3 × 10^5/ml for migration studies. The cell line OVCAR-4 (CVCL_1,627) is a high-grade serous ovarian adenocarcinoma cell line established from a patient refractory to cisplatin ([Johnson et al., 1997]). The cell line was purchased from Merck on 19 March 2021. The growth medium for OVCAR-4 cells was RPMI-1640 (Sigma R5586) supplemented with 2 mM glutamine (G7513; Sigma–Aldrich GmbH), 10% FBS (F9665; Sigma–Aldrich GmbH), 0.25 μg/ml insulin (I9278; Sigma–Aldrich GmbH). OVCAR-4 cells in passages p+6 to p+15 were used in this study and seeded at a concentration of 6 cells/ml × 10^4 cells/ml. The control cell line HIO80 (CVCL_E274) was obtained from Andrew K. Godwin (University of Kansas Medical Center, Kansas, United States) on 20 October 2017 as p+72. It was originally established from ovarian surface epithelium ([Yang et al., 2004]). HIO80 cells were grown in RPMI medium (R5886, Sigma–Aldrich GmbH) supplemented with 10% FBS (F9665; Sigma–Aldrich GmbH), 2 mm L-glutamine (G7513; Sigma–Aldrich GmbH) and 6.6 µg/ml insulin (I9278; Sigma–Aldrich GmbH). HIO80 cells in passages p72 + 8 to p72 + 19 were used in this study and seeded at a concentration of 2 × 10^4 cells/mL. HIO80 in passage +10 was authenticated by short tandem repeats (STR) profiling performed by ATCC on 22 February 2019. Cells were grown in a humidified atmosphere containing 5% CO2 at 37°C. All cell lines were negative for mycoplasma infection which was periodically tested using MycoAlert^TM mycoplasma detection kit (Lonza, Basel, Switzerland).
The effect of ruthenium compounds on the proliferation of ovarian cancer cell lines COV362 and OVCAR-4 and the control cell line HIO80 was analyzed using the cell proliferation reagent alamarBlue HS (A50101; Thermo Fisher Scientific) following the manufacturer’s instructions.
Cells were seeded in 96-well plates in 100 µL of medium and allowed to adhere and grow for 24 h. […] Cisplatin and carboplatin purchased from Sigma–Aldrich GmbH (cat. number: PHR1624, lot: LRAB7778) and (cat. number: C2538, lot: MKCK1243) were dissolved in sterile water. Working solutions were prepared by a serial dilution of stock solutions with a culture medium. After the initial incubation, cells were treated with ruthenium complexes, cisplatin, and carboplatin. A range of final concentrations between 0.001 and 300 µM were used for ruthenium complexes and cisplatin, and between 0.001 µM and 1 mM for carboplatin. After 48 h of incubation, plates were incubated with 20 µL of alamarBlue. After 4 h absorbance was measured with a BioTek microplate spectrophotometer at 570 nm, with the reference wavelength set at 600 nm. First, the background value of a well containing the active substance without cells was subtracted, then the average values for duplicates/triplicates were calculated. The absorbance of the well containing only untreated cells was used as a normalization control. The half-maximal […] concentration (IC50) was determined for all ruthenium complexes with a growth-inhibiting effect on cells by constructing a dose-response curve (Graph Pad Prism, Version 8.0).
As to `Cc1ccc(C(C)C)cc1.O=C(C=C([O][Ru][Cl])c1ccc2c(c1)OCO2)C(F)(F)F` [Compound 5], the IC50 stood at 60.5 µM.

With `Cc1ccc(C(C)C)cc1.O=[N+]([O-])c1ccc([O][Ru][Cl])c2ncccc12` [Compound 9, (η ^6-p-Cymene) (nitroxolinato)chloridoruthenium (II)], it took 12.8 µM to reach half-maximal inhibition (IC50). This IC50 is about 4.7-fold lower than that of the molecule before.

For `C1N2CN3CN1CP(C2)C3.Cc1ccc(C(C)C)cc1.F[P-](F)(F)(F)(F)F.O=[N+]([O-])c1ccc([O][Ru+])c2ncccc12` [Compound 10, (η ^6-p-cymene)(nitroxolinato)(pta)ruthenium(II) hexafluorophosphate], the IC50 was above 200 µM.

With `Cc1ccc(C(C)C)cc1.[Cl-].[O-]c1c(I)cc(Cl)c2cccnc12.[Ru+2]` [Compound 7], half-maximal inhibition (IC50) required 14.3 µM.

In turn, `C1N2CN3CN1CP(C2)C3.Cc1ccc(C(C)C)cc1.F[P-](F)(F)(F)(F)F.[O-]c1c(I)cc(Cl)c2cccnc12.[Ru+2]` [Compound 8] gave a half-inhibitory concentration (IC50) of 32.5 µM. This IC50 is about 2.3-fold higher than that of the molecule before.

For `C1N2CN3CN1CP(C2)C3.Cc1ccc(C(C)C)cc1.F[P-](F)(F)(F)(F)F.O=C(C=C([O][Ru+])c1ccc2c(c1)OCO2)C(F)(F)F` [Compound 6], the IC50 came to 187 µM. This IC50 lies about 5.8-fold higher than the previous one.

On to `C1N2CN3CN1CP(C2)C3.Cc1ccc(C(C)C)cc1.F[P-](F)(F)(F)(F)F.O=C(C=C([O][Ru+])c1ccc(I)cc1)C(F)(F)F` [Compound 2], for which half-maximal inhibition (IC50) was put at 92 µM.

For `CN(C)c1ccc(C(=CC(=O)C(F)(F)F)[O][Ru][Cl])cc1.Cc1ccc(C(C)C)cc1` [Compound 3, (η^6-p-cymene)chlorido(4,4,4-trifluoro-1-(4-(dimethylamino)phenyl)-1,3-butandionato)ruthenium(II)], the IC50 is 34.7 µM.

`Cc1ccc(C(C)C)cc1.O=C(C=C([O][Ru][Cl])c1ccc(I)cc1)C(F)(F)F` [Compound 1]: inhibition was half-maximal at 41.9 µM (IC50).
